Experimental data as given in PubChem BioAssay (NCI).
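Compound exposure: 48 hours, 5 concentrations, 96-well plates. At the TGI there is no net growth.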 Where a SMILES comes first, the peptide text is derived from it.

Assays:
Experiment in all cases: NCI tumour cell line growth inhibition, 48 h
[1] = test system: DU-145 prostate
[2] = test system: SF-539 CNS
[3] = test system: OVCAR-3 ovarian
[4] = test system: MDA-N
[5] = test system: SF-295 CNS
[6] = test system: CCRF-CEM leukemia
[7] = test system: BT-549 breast
[8] = test system: SN12C renal
[9] = test system: NCI-H23 lung
[10] = test system: T-47D breast
[11] = test system: 786-0 renal
[12] = test system: HOP-62 NSCLC
[13] = test system: MDA-MB-435
[14] = test system: NCI-H522 lung
[15] = test system: UACC-257 melanoma
[16] = test system: MALME-3M melanoma
[17] = test system: UACC-62 melanoma
[18] = test system: TK-10 renal
[19] = test system: CAKI-1 renal
[20] = test system: HOP-92 NSCLC

**Q.** How did the TGI [1] turn out when `Clc1ccc(C=NC23CC4CC(CC(C4)C2)C3)cc1Cl` was run?
**A.** The TGI was > 10 µM.

**Q.** What about the TGI [2] of the same compound?
**A.** The TGI was > 10 µM.

**Q.** And the TGI [3]?
**A.** The TGI was > 10 µM.

**Q.** What about the TGI [4] of the same compound?
**A.** The TGI was > 10 µM.

**Q.** What about the TGI [5] of the same compound?
**A.** Its TGI is > 10 µM.

**Q.** And the TGI [6]?
**A.** Its TGI is > 10 µM.

**Q.** What about the TGI [7] of the same compound?
**A.** The TGI was > 10 µM.

**Q.** And the TGI [8]?
**A.** Its TGI is > 10 µM.

**Q.** What about the TGI [9] of the same compound?
**A.** Its TGI is > 10 µM.

**Q.** What about the TGI [10] of the same compound?
**A.** The TGI was > 10 µM.

**Q.** What about the TGI [11] of the same compound?
**A.** The TGI was > 10 µM.

**Q.** What about the TGI [12] of the same compound?
**A.** The TGI was > 10 µM.

**Q.** And the TGI [13]?
**A.** Its TGI is > 10 µM.

**Q.** And the TGI [14]?
**A.** The TGI was > 10 µM.

**Q.** What about the TGI [15] of the same compound?
**A.** Its TGI is > 10 µM.

**Q.** What about the TGI [16] of the same compound?
**A.** Its TGI is > 10 µM.

**Q.** And the TGI [17]?
**A.** The TGI was > 10 µM.

**Q.** And the TGI [18]?
**A.** The TGI was > 10 µM.

**Q.** What about the TGI [19] of the same compound?
**A.** The TGI was > 10 µM.

**Q.** What about the TGI [20] of the same compound?
**A.** The TGI was > 10 µM.

**Q.** What does the source list for `CCC(C)C(NC(=O)C1CCCN1C(=O)C(CC(C)C)NC(=O)C(CC(C)C)NC(=O)C(N)CC(C)C)C(=O)NC(C(=O)NCC(=O)NC(CC(N)=O)C(=O)NC(CC(C)C)C(=O)NC(CC(C)C)C(=O)NC(CC(C)C)C(N)=O)C(C)C` (stereo not given) (H-LLLPIVGNLLL-NH2; configuration not given here)?
**A.** TGI [1]: > 50 µM; TGI [2]: > 50 µM; TGI [3]: > 50 µM; TGI [4]: > 50 µM; TGI [5]: > 50 µM; TGI [6]: > 50 µM; TGI [7]: > 50 µM; TGI [8]: > 50 µM; TGI [9]: > 50 µM; TGI [10]: > 50 µM; TGI [11]: > 50 µM; TGI [12]: > 50 µM; TGI [13]: > 50 µM; TGI [14]: > 50 µM; TGI [15]: > 50 µM; TGI [16]: > 50 µM; TGI [17]: > 50 µM; TGI [18]: > 50 µM; TGI [19]: > 50 µM; TGI [20]: > 50 µM
